Reference: PubChem BioAssay (NCI)
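1) Cells in 96-well plates. 2) Compound, 48 h, 5 concentrations. 3) Linear interpolation between surrounding doses. 4) Unreached endpoint = highest concentration. The concentration for full growth arrest is given as TGI.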

Assays:
Test in all cases: NCI-60 cell line screen, 48 h
786-0 renal = system: 786-0 renal
COLO 205 colon = system: COLO 205 colon
EKVX NSCLC = system: EKVX NSCLC
IGROV1 ovarian = system: IGROV1 ovarian
MDA-MB-231 breast = system: MDA-MB-231 breast
NCI-H226 lung = system: NCI-H226 lung
NCI-H460 lung = system: NCI-H460 lung
NCI/ADR-RES ovarian = system: NCI/ADR-RES ovarian
SK-MEL-28 melanoma = system: SK-MEL-28 melanoma
SK-OV-3 ovarian = system: SK-OV-3 ovarian
T-47D breast = system: T-47D breast

With CC1(C)CC2C(C1=O)C1(C)CCCC2(C)C1=O (stereo not given) the TGI (786-0 renal) was > 100 µM, the TGI (COLO 205 colon) was > 100 µM and the TGI (EKVX NSCLC) was > 100 µM. For the same compound, the TGI (IGROV1 ovarian) was > 100 µM, the TGI (MDA-MB-231 breast) was > 100 µM and the TGI (NCI-H226 lung) was > 100 µM. The TGI (NCI-H460 lung) was > 100 µM, the TGI (NCI/ADR-RES ovarian) was > 100 µM and the TGI (SK-MEL-28 melanoma) was > 100 µM. The TGI (SK-OV-3 ovarian) was > 100 µM and the TGI (T-47D breast) was > 100 µM.

Work on CCCCCCCCCCCCCCCCP(=O)([O-])OCC[N+](C)(C)C yielded a TGI (786-0 renal) of 19.9 µM, a TGI (COLO 205 colon) of 20.5 µM and a TGI (EKVX NSCLC) of 39.1 µM. For the same compound, the TGI (IGROV1 ovarian) was 7.2 µM, the TGI (MDA-MB-231 breast) was 35.2 µM and the TGI (NCI-H226 lung) was 40.9 µM. The TGI (NCI-H460 lung) was 18.8 µM, the TGI (NCI/ADR-RES ovarian) was 34.7 µM and the TGI (SK-MEL-28 melanoma) was 33.8 µM. The TGI (SK-OV-3 ovarian) was 24.6 µM and the TGI (T-47D breast) was 35.5 µM.

For COc1cc2c(cc1OCCCCCOc1cc3c(cc1OC)C(=O)N1CCC[C@H]1CN3)N=C[C@@H]1CCCN1C2=O, the TGI (786-0 renal) was 63.2 µM, the TGI (COLO 205 colon) was > 100 µM and the TGI (EKVX NSCLC) was > 100 µM. It also gave a TGI (IGROV1 ovarian) of 21.3 µM, a TGI (MDA-MB-231 breast) of 9.48 µM and a TGI (NCI-H226 lung) of 29.1 µM. For the same compound, the TGI (NCI-H460 lung) was > 100 µM, the TGI (NCI/ADR-RES ovarian) was > 100 µM and the TGI (SK-MEL-28 melanoma) was 28.2 µM. The TGI (SK-OV-3 ovarian) was > 100 µM and the TGI (T-47D breast) was > 100 µM.

With NC(N)=NCC(N)C(=O)O (stereo not given) the TGI (786-0 renal) was > 100 µM, the TGI (COLO 205 colon) was > 100 µM and the TGI (EKVX NSCLC) was > 100 µM. The TGI (IGROV1 ovarian) was > 100 µM, the TGI (MDA-MB-231 breast) was > 100 µM and the TGI (NCI-H226 lung) was > 100 µM. The TGI (NCI-H460 lung) was > 100 µM, the TGI (NCI/ADR-RES ovarian) was > 100 µM and the TGI (SK-MEL-28 melanoma) was > 100 µM. For the same compound, the TGI (SK-OV-3 ovarian) was > 100 µM and the TGI (T-47D breast) was > 100 µM.

OCC(O)C(O)C(O)C(O)/C=N/Nc1nc(O)c(/C=C2\C=Nc3ccccc32)[nH]1 (stereo not given) was tested, and the TGI (786-0 renal) was > 100 µM, the TGI (COLO 205 colon) was > 100 µM and the TGI (EKVX NSCLC) was > 100 µM. For the same compound, the TGI (IGROV1 ovarian) was > 100 µM, the TGI (MDA-MB-231 breast) was > 100 µM and the TGI (NCI-H226 lung) was > 100 µM. The TGI (NCI-H460 lung) was > 100 µM, the TGI (NCI/ADR-RES ovarian) was > 100 µM and the TGI (SK-MEL-28 melanoma) was > 100 µM. For the same compound, the TGI (SK-OV-3 ovarian) was > 100 µM and the TGI (T-47D breast) was > 100 µM.

For COc1cccc(-c2cc(=O)c3cc(Cl)cnc3[nH]2)c1, the TGI (786-0 renal) was 42.2 µM, the TGI (COLO 205 colon) was 7.59 µM and the TGI (EKVX NSCLC) was > 100 µM. For the same compound, the TGI (IGROV1 ovarian) was > 100 µM, the TGI (MDA-MB-231 breast) was > 65.5 µM and the TGI (NCI-H226 lung) was 1.57 µM. For the same compound, the TGI (NCI-H460 lung) was > 100 µM, the TGI (NCI/ADR-RES ovarian) was 0.783 µM and the TGI (SK-MEL-28 melanoma) was > 100 µM. The TGI (SK-OV-3 ovarian) was 74.8 µM and the TGI (T-47D breast) was > 100 µM.

With COP(C)(=O)C(Cc1c[nH]c2ccccc12)NC(=O)OCc1ccccc1 (stereo not given) the TGI (786-0 renal) was > 100 µM, the TGI (COLO 205 colon) was > 100 µM and the TGI (EKVX NSCLC) was > 100 µM. The TGI (IGROV1 ovarian) was > 100 µM, the TGI (MDA-MB-231 breast) was > 100 µM and the TGI (NCI-H226 lung) was > 100 µM. For the same compound, the TGI (NCI-H460 lung) was > 100 µM, the TGI (NCI/ADR-RES ovarian) was > 100 µM and the TGI (SK-MEL-28 melanoma) was > 100 µM. For the same compound, the TGI (SK-OV-3 ovarian) was > 100 µM and the TGI (T-47D breast) was > 100 µM.

With CC1(C)c2ccccc2C(O)C12CCC(=O)CC2 (stereo not given) the TGI (786-0 renal) was > 100 µM, the TGI (COLO 205 colon) was > 100 µM and the TGI (EKVX NSCLC) was > 100 µM. The TGI (IGROV1 ovarian) was > 100 µM, the TGI (MDA-MB-231 breast) was > 100 µM and the TGI (NCI-H226 lung) was > 100 µM. For the same compound, the TGI (NCI-H460 lung) was > 100 µM, the TGI (NCI/ADR-RES ovarian) was > 100 µM and the TGI (SK-MEL-28 melanoma) was > 100 µM. The TGI (SK-OV-3 ovarian) was > 100 µM and the TGI (T-47D breast) was > 100 µM.

For C=CCN1CCC2(CC1)NC(=O)c1ccccc1O2, the TGI (786-0 renal) was > 100 µM, the TGI (COLO 205 colon) was > 100 µM and the TGI (EKVX NSCLC) was > 100 µM. The TGI (IGROV1 ovarian) was > 100 µM, the TGI (MDA-MB-231 breast) was > 100 µM and the TGI (NCI-H226 lung) was > 100 µM. The TGI (NCI-H460 lung) was > 100 µM, the TGI (NCI/ADR-RES ovarian) was > 100 µM and the TGI (SK-MEL-28 melanoma) was > 100 µM. The TGI (SK-OV-3 ovarian) was > 100 µM and the TGI (T-47D breast) was > 100 µM.

With C=CC1(c2ccc(OC)cc2)OCCCO1 the TGI (786-0 renal) was > 100 µM, the TGI (COLO 205 colon) was > 100 µM and the TGI (EKVX NSCLC) was 34.6 µM. The TGI (IGROV1 ovarian) was > 100 µM, the TGI (MDA-MB-231 breast) was > 100 µM and the TGI (NCI-H226 lung) was > 100 µM. For the same compound, the TGI (NCI-H460 lung) was > 100 µM, the TGI (NCI/ADR-RES ovarian) was > 100 µM and the TGI (SK-MEL-28 melanoma) was > 100 µM. The TGI (SK-OV-3 ovarian) was > 100 µM and the TGI (T-47D breast) was > 100 µM.
